The values below come from US20080096861A1, “Chemical Compounds” (SMITHKLINE BEECHAM CORPORATION, priority 2004, published 2008).

The structures appear in SMILES notation.

For the assay, the system named is HIV-1 IIIB. Briefly: HOS HIV-1 infectivity assay. The format is cell-based. The note with it: Human immunodeficiency virus 1, IIIB; as determined by the infectivity assay; strain not stated in Table 2; read-out: Activity Level. The procedure:
Compounds were profiled against two HIV-1 viruses, the M-tropic (CCR5 utilizing) Ba-L strain and the T-tropic (CXCR4 utilizing) IIIB strain. Both viruses were propagated in human peripheral blood lymphocytes. Compounds were tested for there ability to block infection of the HOS cell line (expressing hCXCR4/hCCR5/hCD4/pHIV-LTR-luciferase) by either HIV-1 Ba-L or HIV-1 IIIB. Compound cytotoxicity was also examined in the absence of virus addition.
HOS cells (expressing hCXCR4/hCCR5/hCD4/pHIV-LTR-luciferase) were harvested and diluted in Dulbeccos modified Eagles media supplemented with 2% FCS and non-essential amino acid to a concentration of 60,000 cells/ml. The cells were plated into 96-well plates (100 ul per well) and the plates were placed in a tissue culture incubator (37° C.; 5% CO2/95% air) for a period of 24 h.
Subsequently, 50 ul of the desired drug solution (4 times the final concentration) was added to each well and the plates were returned to the tissue culture incubator (37° C.; 5% CO2/95% air) for 1 h. Following this incubation 50 ul of diluted virus was added to each well (approximately 2 million RLU per well of virus). The plates were returned to the tissue culture incubator (37° C.; 5% CO2/95% air) and were incubated for a further 96 h.
Following this incubation the endpoint for the virally infected cultures was quantified following addition of Steady-Glo Luciferase assay system reagent (Promega, Madison, Wis.). Cell viability or non-infected cultures was measured using a CellTiter-Glo luminescent cell viability assay system (Promega, Madison, Wis.). All luminescent readouts are performed on a Topcount luminescence detector (Packard, Meridien, Conn.).
Turning to `CN(Cc1nc2ccccc2n1CC1CCNC1)C1CCCc2cccnc21` (stereo not shown) [Example 8c, N-Methyl-N-{[1-(3-pyrrolidinylmethyl)-1H-benzimidazol-2-yl]methyl}-5,6,7,8-tetrahydro-8-quinolinamine], the IC50 is less than 100 nM.

For `CN(Cc1nc2ccccc2n1CC1CNC1)C1CCCc2cccnc21` (stereo not shown) [Example 10d, N-{[1-(3-Azetidinylmethyl)-1H-benzimidazol-2-yl]methyl}-N-methyl-5,6,7,8-tetrahydro-8-quinolinamine], the IC50 is less than 100 nM.

Consider `CN(Cc1nc2ccccc2n1C1CCNCC1)C1CCCc2cccnc21` (stereo not shown) [Example 11h, N-Methyl-N-{[1-(4-piperidinyl)-1H-benzimidazol-2-yl]methyl}-5,6,7,8-tetrahydro-8-quinolinamine], for which the IC50 was less than 100 nM.

For `CN(Cc1nc2ccccc2n1CCCN)C1CCCc2cccnc21` (stereo not shown) [Example 15b, N-{[1-(3-Aminopropyl)-1H-benzimidazol-2-yl]methyl}-N-methyl-5,6,7,8-tetrahydro-8-quinolinamine], the IC50 is less than 100 nM.

On to `CN(Cc1nc2ccccc2n1CCC1CCCCN1)C1CCCc2cccnc21` (stereo not shown) [Example 23d, N-Methyl-N-({1-[2-(2-piperidinyl)ethyl]-1H-benzimidazol-2-yl}methyl)-5,6,7,8-tetrahydro-8-quinolinamine], for which the IC50 was less than 100 nM.

As for `CN(Cc1nc2ccccc2n1Cc1ccccn1)C1CCCc2cccnc21` (stereo not shown) [Example 26, N-Methyl-N-{[1-(2-pyridinylmethyl)-1H-benzimidazol-2-yl]methyl}-5,6,7,8-tetrahydro-8-quinolinamine], the IC50 lay in the range of 500 to 10000 nM.

`CN(Cc1nc2ccccc2n1Cc1ccncc1)C1CCCc2cccnc21` (stereo not shown) [Example 27, N-Methyl-N-{[1-(4-pyridinylmethyl)-1H-benzimidazol-2-yl]methyl}-5,6,7,8-tetrahydro-8-quinolinamine]: the IC50 fell in the range of 100 to 500 nM.

For `CN(Cc1nc2ccccc2n1CC(=O)NCc1ccncc1)C1CCCc2cccnc21` (stereo not shown) [Example 28, 2-(2-{[Methyl(5,6,7,8-tetrahydro-8-quinolinyl)amino]methyl}-1H-benzimidazol-1-yl)-N-(4-pyridinylmethyl)acetamide], the IC50 fell in the range of 100 to 500 nM.

In the case of `CN(Cc1nc2ccccc2n1CC(=O)NCc1cccnc1)C1CCCc2cccnc21` (stereo not shown) [Example 29, 2-(2-{[Methyl(5,6,7,8-tetrahydro-8-quinolinyl)amino]methyl}-1H-benzimidazol-1-yl)-N-(3-pyridinylmethyl)acetamide], the IC50 is less than 100 nM.

Consider `CN(Cc1nc2ccccc2n1CC(=O)NCCCN)C1CCCc2cccnc21` (stereo not shown) [Example 30, N-(3-Aminopropyl)-2-(2-{[methyl(5,6,7,8-tetrahydro-8-quinolinyl)amino]methyl}-1H-benzimidazol-1-yl)acetamide], for which the IC50 fell in the range of 100 to 500 nM.

For the compound `CN(Cc1nc2ccccc2n1CC(=O)NCCN)C1CCCc2cccnc21` (stereo not shown) [Example 31, N-(2-Aminoethyl)-2-(2-{[methyl(5,6,7,8-tetrahydro-8-quinolinyl)amino]methyl}-1H-benzimidazol-1-yl)acetamide], the IC50 was in the range of 100 to 500 nM.

In the case of `CN(Cc1nc2ccccc2n1CC(=O)N1CCNCC1)C1CCCc2cccnc21` (stereo not shown) [Example 32, N-Methyl-N-({1-[2-oxo-2-(1-piperazinyl)ethyl]-1H-benzimidazol-2-yl}methyl)-5,6,7,8-tetrahydro-8-quinolinamine], the IC50 was in the range of 500 to 10000 nM.

With `CN(Cc1nc2ccccc2n1CC(=O)NCc1ccccn1)C1CCCc2cccnc21` (stereo not shown) [Example 33, 2-(2-{[Methyl(5,6,7,8-tetrahydro-8-quinolinyl)amino]methyl}-1H-benzimidazol-1-yl)-N-(2-pyridinylmethyl)acetamide], the IC50 lay in the range of 100 to 500 nM.

`CN(Cc1nc2ccccc2n1[C@H]1CC[C@H](N(C)C)CC1)C1CCCc2cccnc21` (stereo partly drawn) [Example 35, N-({1-[trans-4-(Dimethylamino)cyclohexyl]-1H-benzimidazol-2-yl}methyl)-N-methyl-5,6,7,8-tetrahydro-8-quinolinamine]: the IC50 fell in the range of 100 to 500 nM.

`CN(Cc1nc2ccccc2n1CCc1cccnc1)C1CCCc2cccnc21` (stereo not shown) [Example 36]: the IC50 lay within 100 to 500 nM.

Turning to `CN(Cc1nc2ccccc2n1CCc1ccccn1)C1CCCc2cccnc21` (stereo not shown) [Example 37, N-methyl-N-([1-[2-(2-pyridinyl)ethyl]-1H-benzimidazol-2-yl]methyl)-5,6,7,8-tetrahydro-8-quinolinamine], the IC50 is 100 to 500 nM.

`CN(C)CCCn1ccnc1CN(C)C1CCCc2cccnc21` (stereo not shown) [Example 38, N-({1-[3-(Dimethylamino)propyl]-1H-imidazol-2-yl}methyl)-N-methyl-5,6,7,8-tetrahydro-8-quinolinamine]: the IC50 lay within 500 to 10000 nM.

As for `CN(Cc1nc2ccccc2n1C[C@H]1CCCNC1)[C@H]1CCCc2cccnc21` [Example 39h, (8S)—N-Methyl-N-({1-[(3S)-3-piperidinylmethyl]-1H-benzimidazol-2-yl}methyl)-5,6,7,8-tetrahydro-8-quinolinamine], the IC50 is less than 100 nM.

Take `CN1CCC[C@H](Cn2c(CN(C)[C@H]3CCCc4cccnc43)nc3ccccc32)C1` [Example 39i, (8S)—N-Methyl-N-[(1-{[(3S)-1-methyl-3-piperidinyl]methyl}-1H-benzimidazol-2-yl)methyl]-5,6,7,8-tetrahydro-8-quinolinamine]: the IC50 was less than 100 nM.

With `CN(Cc1nc2ccccc2n1C[C@H]1CCCN(Cc2ccccn2)C1)[C@H]1CCCc2cccnc21` [Example 40, (8S)—N-Methyl-N-[(1-{[(3S)-1-(2-pyridinylmethyl)-3-piperidinyl]methyl}-1H-benzimidazol-2-yl)methyl]-5,6,7,8-tetrahydro-8-quinolinamine], the IC50 was less than 100 nM.

Turning to `CN(Cc1nc2ccccc2n1C[C@H]1CCCN(Cc2cccnc2)C1)[C@H]1CCCc2cccnc21` [Example 41, (8S)—N-Methyl-N-[(1-{[(3S)-1-(3-pyridinylmethyl)-3-piperidinyl]methyl}-1H-benzimidazol-2-yl)methyl]-5,6,7,8-tetrahydro-8-quinolinamine], the IC50 is less than 100 nM.

As to `CN(Cc1nc2ccccc2n1C[C@H]1CCCN(Cc2ccncc2)C1)[C@H]1CCCc2cccnc21` [Example 42, (8S)—N-Methyl-N-[(1-{[(3S)-1-(4-pyridinylmethyl)-3-piperidinyl]methyl}-1H-benzimidazol-2-yl)methyl]-5,6,7,8-tetrahydro-8-quinolinamine], the IC50 is less than 100 nM.

For the compound `CN(Cc1nc2ccccc2n1C[C@H]1CCCN(Cc2ccccc2)C1)[C@H]1CCCc2cccnc21` [Example 43, (8S)—N-Methyl-N-[(1-{[(3S)-1-(phenylmethyl)-3-piperidinyl]methyl}-1H-benzimidazol-2-yl)methyl]-5,6,7,8-tetrahydro-8-quinolinamine], the IC50 was less than 100 nM.

As to `CC(C)CN1CCC[C@H](Cn2c(CN(C)[C@H]3CCCc4cccnc43)nc3ccccc32)C1` [Example 44, (8S)—N-Methyl-N-[(1-{[(3S)-1-(2-methylpropyl)-3-piperidinyl]methyl}-1H-benzimidazol-2-yl)methyl]-5,6,7,8-tetrahydro-8-quinolinamine], the IC50 is less than 100 nM.

Regarding `CN(Cc1nc2ccccc2n1C[C@H]1CCCN(Cc2ncc[nH]2)C1)[C@H]1CCCc2cccnc21` [Example 45, (8S)—N-[(1-{[(3S)-1-(1H-Imidazol-2-ylmethyl)-3-piperidinyl]methyl}-1H-benzimidazol-2-yl)methyl]-N-methyl-5,6,7,8-tetrahydro-8-quinolinamine], the IC50 is less than 100 nM.
